Laboratory results: patent US7943551B2, “3-cyclopropyl-4-(3-thiobenzoyl) pyrazoles and their use as herbicides” (Bayer Cropscience AG, priority 2007, dated 2011)

Key:
Type in all cases: in vivo
Viola tricolor [1] = assay: Pre-emergence herbicidal action; details: 80 g of a.i./ha
Source text: Seeds or rhizome pieces of mono- and dicotyledonous harmful plants are placed in sandy loam in pots of a diameter of 9 to 13 cm and covered with soil. The herbicides, formulated as emulsifiable concentrates or dusts, are applied to the surface of the covering soil in the form of aqueous dispersions or suspensions or emulsions at an application rate of 300 to 800 l of water/ha (converted), […] For further cultivation of the plants, the pots are then kept in a greenhouse under optimum conditions. The visual scoring of the damage to the harmful plants is carried out 3-4 weeks after the treatment. Here, the compounds of Nos. 1-3, 1-15, 1-44 and 1-1407 show an activity of at least 90% against Echinochloa crus galli. The compounds of Nos. 1-15, 1-45, 1-1407 and 1-1419 show an activity of at least 90% against Abutilon theophrasti. The compounds of Nos. 1-3, 1-45, 1-1406 and 1-1418 show an activity of at least 90% against Amaranthus retroflexus. The compounds of Nos. 1-44, 1-1406, 1-1407 and 1-1419 show an activity of at least 90% against Stellaria media.
(§1) The comparative tests of Tables 1 to 24 below show the superiority of the compounds according to the invention over the compounds known from the prior art.
(§2) • ABUTH Abutilon theophrasti ALOMY Alopecurus myosuroides • AMARE Amaranthus retroflexus AVEFA Avena fatua • CHEAL Chenopodium album ECHCG Echinochloa crus galli • GALAP Galium aparine LOLMU Lolium multiflorum • MATIN Matricaria inodora PHBPU Pharbitis purpureum • POLCO Fallopia convolvulus STEME Stellaria media • VERPE Veronica persica VIOTR Viola tricolor • XANST Xanthium strumarium Crop Plants • GLXMA Glycine max (soybeans) TRZAS Triticum aestivum (wheat) • ZEAMX Zea mays (corn)

Abutilon theophrasti [2] = assay: Pre-emergence herbicidal action; details: 320 g of a.i./ha, visual scoring 3-4 weeks after treatment
Source text: (§3) Seeds or rhizome pieces of mono- and dicotyledonous harmful plants are placed in sandy loam in pots of a diameter of 9 to 13 cm and covered with soil. The herbicides, formulated as emulsifiable concentrates or dusts, are applied to the surface of the covering soil in the form of aqueous dispersions or suspensions or emulsions at an application rate of 300 to 800 l of water/ha (converted), at a dosage of 320 grams per hectare. For further cultivation of the plants, the pots are then kept in a greenhouse under optimum conditions. The visual scoring of the damage to the harmful plants is carried out 3-4 weeks after the treatment. Here, the compounds of Nos. 1-3, 1-15, 1-44 and 1-1407 show an activity of at least 90% against Echinochloa crus galli. The compounds of Nos. 1-15, 1-45, 1-1407 and 1-1419 show an activity of at least 90% against Abutilon theophrasti. The compounds of Nos. 1-3, 1-45, 1-1406 and 1-1418 show an activity of at least 90% against Amaranthus retroflexus. The compounds of Nos. 1-44, 1-1406, 1-1407 and 1-1419 show an activity of at least 90% against Stellaria media.
as §1, §2

Matricaria inodora [3] = assay: Pre-emergence herbicidal action; details: Tripleurospermum inodorum, 320 g of a.i./ha, read-out: Herbicidal activity in % against MATIN
Source text: as §3, §1, §2

Echinochloa crus galli = assay: Post-emergence herbicidal action; details: read-out: Herbicidal activity in % against ECHCG; for pest or weed control at 80 g/ha: 80 g of a.i./ha, visual scoring 3-4 weeks after treatment; for pest or weed control at 20 g/ha: 20 g of a.i./ha
Protocol: (§4) Seeds of mono- and dicotyledonous harmful plants are placed in sandy loam in cardboard pots, covered with soil and grown in the greenhouse under good growth conditions. Two to three weeks after sowing, the test plants are treated at the three-leaf stage. The compounds according to the invention, which are formulated as wettable powders or as emulsion concentrates, are sprayed at an application rate of 600 to 800 l of water/ha (converted) in a dosage of 80 grams per hectare onto the surface of the green plant parts. The visual scoring of the damage to the harmful plants is carried out 3-4 weeks after the treatment. Here, the compounds of Nos. 1-39, 1-40, 1-1382 and 1-2091 show an activity of at least 90% against Echinochloa crus galli. The compounds of Nos. 1-3, 1-44 and 1-2091 shown an activity of at least 90% against Abutilon theophrasti. The compounds of Nos. 1-39, 1-40 and 1-1382 show an activity of at least 90% against Veronica persica. The compounds of Nos. 1-3, 1-38, 1-39, 1-1406 and 1-1407 show an activity of at least 90% against Stellaria media.
as §1, §2

Viola tricolor [4] = assay: Post-emergence herbicidal action; details: 80 g of a.i./ha, read-out: Herbicidal activity in % against VIOTR
Protocol: as §4, §1, §2

Xanthium strumarium = assay: Post-emergence herbicidal action; details: read-out: Herbicidal activity in % against XANST; for pest or weed control at 80 g/ha: 80 g of a.i./ha; for pest or weed control at 20 g/ha: 20 g of a.i./ha
Protocol: as §4, §1, §2

Abutilon theophrasti [5] = assay: Post-emergence herbicidal action; details: for pest or weed control at 20 g/ha / pest or weed control at 80 g/ha: Abutilon theophrasti, read-out: Herbicidal activity in % against ABUTH; for pest or weed control at 20 g/ha: 20 g of a.i./ha
Protocol: as §4, with “The compounds according to the invention, which are formulated as wettable powders or as emulsion concentrates, are sprayed at an application rate of 600 to 800 l of water/ha (converted) in a dosage of 80 grams per hectare onto the surface of the green plant parts.” left out
as §1, §2

Stellaria media = assay: Post-emergence herbicidal action; details: 80 g of a.i./ha, visual scoring 3-4 weeks after treatment; for pest or weed control at 80 g/ha: Stellaria media, read-out: Herbicidal activity in % against STEME
Protocol: as §4, §1, §2

Matricaria inodora [6] = assay: Post-emergence herbicidal action; details: Tripleurospermum inodorum, 80 g of a.i./ha, read-out: Herbicidal activity in % against MATIN
Protocol: as §4, §1, §2

Pharbitis purpureum = assay: Post-emergence herbicidal action; details: 80 g of a.i./ha
Protocol: as §4, §1, §2

Veronica persica = assay: Post-emergence herbicidal action; details: 80 g of a.i./ha, visual scoring 3-4 weeks after treatment, read-out: Herbicidal activity in % against VERPE
Protocol: as §4, §1, §2

[7] = 80 g of a.i./ha, visual scoring 3-4 weeks after treatment

CC[S+]([O-])c1c(S(C)(=O)=O)ccc(C(=O)c2c(C3CC3)nn(C)c2O)c1C (stereo not shown) was tested, and the “Herbicidal activity in % against VIOTR” value (Viola tricolor [1]) was 60%.

With CCSc1c(C(F)(F)F)ccc(C(=O)c2c(C3CC3)nn(C)c2O)c1C the “Herbicidal activity in % against ABUTH” value (Abutilon theophrasti [2]) was 90% and the pest or weed control at 320 g/ha (Matricaria inodora [3]) was 0%.

With COCCSc1c(S(C)(=O)=O)ccc(C(=O)c2c(C3CC3)nn(C)c2O)c1C the pest or weed control at 80 g/ha (Echinochloa crus galli) was 90%, the pest or weed control at 80 g/ha (Viola tricolor [4]) was 90% and the pest or weed control at 80 g/ha (Xanthium strumarium) was 90%.

In the case of Cn1nc(C2CC2)c(C(=O)c2ccc(Cl)c(SCC3CC3)c2Cl)c1O, the pest or weed control at 20 g/ha (Xanthium strumarium) is reported as 70% and the pest or weed control at 20 g/ha (Abutilon theophrasti [5]) is reported as 60%.

With COCCSc1c(S(C)(=O)=O)ccc(C(=O)c2c(C3CC3)nn(C)c2O)c1Cl [No. 1-3, 4-(2-chloro-3-(2-methoxyethyl)thio-4-methylsulfonylbenzoyl)-3-cyclopropyl-5-hydroxy-1-methylpyrazole] the pest or weed control at 80 g/ha (Stellaria media) was at least 90% and the pest or weed control at 80 g/ha (Abutilon theophrasti [5]; [7]) was at least 90%.

Cc1c(C(=O)c2c(C3CC3)nn(C)c2O)ccc(S(C)(=O)=O)c1SCC1CC1 [No. 1-38, 3-cyclopropyl-4-(3-cyclopropylmethylthio-2-methyl-4-methylsulfonylbenzoyl)-5-hydroxy-1-methylpyrazole] showed a pest or weed control at 80 g/ha (Stellaria media) of at least 90%.

For Cc1c(C(=O)c2c(C3CC3)nn(C)c2O)ccc(Cl)c1SCC1CC1 [No. 1-1406, 4-(4-chloro-3′-cyclopropylmethylthio-2-methylbenzoyl)-3-cyclopropyl-5-hydroxy-1-methylpyrazole], the pest or weed control at 80 g/ha (Stellaria media) was at least 90%.

For COCCSc1c(C(F)(F)F)ccc(C(=O)c2c(C3CC3)nn(C)c2O)c1C [No. 1-2091, 3-cyclopropyl-5-hydroxy-4-(3-(2-methoxyethyl)thio-2-methyl-4-trifluoromethylbenzoyl)-1-methylpyrazole], the pest or weed control at 80 g/ha (Echinochloa crus galli) was at least 90% and the pest or weed control at 80 g/ha (Abutilon theophrasti [5]; [7]) was at least 90%.

For COCC[S+]([O-])c1c(S(C)(=O)=O)ccc(C(=O)c2c(C3CC3)nn(C)c2O)c1C (stereo not shown) [drawing 11], the “Herbicidal activity in % against VIOTR” value (Viola tricolor [1]) was 70%.

COCCSc1c(C(F)(F)F)ccc(C(=O)c2c(C3CC3)nn(C)c2O)c1C [drawing 19] was tested, and the “Herbicidal activity in % against ABUTH” value (Abutilon theophrasti [2]) was 100% and the pest or weed control at 320 g/ha (Matricaria inodora [3]) was 60%.

CSc1c(C(F)(F)F)ccc(C(=O)c2c(C3CC3)nn(C)c2O)c1C [drawing 20] was tested, and the “Herbicidal activity in % against ABUTH” value (Abutilon theophrasti [2]) was 50% and the pest or weed control at 320 g/ha (Matricaria inodora [3]) was 0%.

For Cc1c(C(=O)c2c(C3CC3)nn(C)c2O)ccc(S(C)(=O)=O)c1SCC1CC1 [drawing 29], the pest or weed control at 80 g/ha (Echinochloa crus galli) was 100%, the pest or weed control at 80 g/ha (Viola tricolor [4]) was 90% and the pest or weed control at 80 g/ha (Xanthium strumarium) was 90%.

CSc1c(S(C)(=O)=O)ccc(C(=O)c2c(C3CC3)nn(C)c2O)c1C [drawing 30, reference compound] was tested, and the pest or weed control at 80 g/ha (Echinochloa crus galli) was 80%, the pest or weed control at 80 g/ha (Viola tricolor [4]) was 70% and the pest or weed control at 80 g/ha (Xanthium strumarium) was 60%.

For Cc1c(C(=O)c2c(C3CC3)nn(C)c2O)ccc(Cl)c1SCC1CC1 [drawing 39], the pest or weed control at 80 g/ha (Echinochloa crus galli) was 90%, the pest or weed control at 80 g/ha (Matricaria inodora [6]) was 70% and the “Herbicidal activity in % against PHBPU” value (Pharbitis purpureum) was 70%. For the same compound, the “Herbicidal activity in % against STEME” value (Stellaria media) was 100%.

CCSc1c(Cl)ccc(C(=O)c2c(C3CC3)nn(C)c2O)c1C [drawing 40, reference compound] was tested, and the pest or weed control at 80 g/ha (Echinochloa crus galli) was 80%, the pest or weed control at 80 g/ha (Matricaria inodora [6]) was 40% and the “Herbicidal activity in % against PHBPU” value (Pharbitis purpureum) was 40%. It also gave a pest or weed control at 80 g/ha (Stellaria media) of 90%.

With COCCSc1c(Cl)ccc(C(=O)c2c(C3CC3)nn(C)c2O)c1C [drawing 41] the pest or weed control at 80 g/ha (Echinochloa crus galli) was 90%, the pest or weed control at 80 g/ha (Matricaria inodora [6]) was 80% and the “Herbicidal activity in % against PHBPU” value (Pharbitis purpureum) was 80%. For the same compound, the pest or weed control at 80 g/ha (Stellaria media) was 100%.

Work on COCCSc1c(C(F)(F)F)ccc(C(=O)c2c(C3CC3)nn(C)c2O)c1C [drawing 45] yielded a pest or weed control at 20 g/ha (Echinochloa crus galli) of 80% and a pest or weed control at 20 g/ha (Abutilon theophrasti [5]) of 80%.

CSc1c(C(F)(F)F)ccc(C(=O)c2c(C3CC3)nn(C)c2O)c1C [drawing 46, reference compound] showed a pest or weed control at 20 g/ha (Echinochloa crus galli) of 60% and a pest or weed control at 20 g/ha (Abutilon theophrasti [5]) of 70%.

COCCSc1c(S(C)(=O)=O)ccc(C(=O)c2c(C3CC3)nn(C)c2O)c1Cl [drawing 47] was tested, and the pest or weed control at 80 g/ha (Matricaria inodora [6]) was 70%, the pest or weed control at 80 g/ha (Viola tricolor [4]) was 70% and the “Herbicidal activity in % against ABUTH” value (Abutilon theophrasti [5]; [7]) was 90%.

With CCSc1c(S(C)(=O)=O)ccc(C(=O)c2c(C3CC3)nn(C)c2O)c1Cl [drawing 48, reference compound] the pest or weed control at 80 g/ha (Matricaria inodora [6]) was 0%, the pest or weed control at 80 g/ha (Viola tricolor [4]) was 60% and the pest or weed control at 80 g/ha (Abutilon theophrasti [5]; [7]) was 80%.

With CSc1c(S(C)(=O)=O)ccc(C(=O)c2c(C3CC3)nn(C)c2O)c1Cl [drawing 50, reference compound] the pest or weed control at 80 g/ha (Matricaria inodora [6]) was 30%, the pest or weed control at 80 g/ha (Viola tricolor [4]) was 60% and the pest or weed control at 80 g/ha (Abutilon theophrasti [5]; [7]) was 80%.

In the case of COCCSc1c(S(C)(=O)=O)ccc(C(=O)c2c(C3CC3)nn(C)c2O)c1Cl [drawing 51], the “Herbicidal activity in % against PHBPU” value (Pharbitis purpureum) is reported as 60%, the “Herbicidal activity in % against STEME” value (Stellaria media) is reported as 90% and the pest or weed control at 80 g/ha (Veronica persica) is reported as 100%.

In the case of CSc1c(S(C)(=O)=O)ccc(C(=O)c2c(C3CC3)nn(C)c2O)c1Cl [drawing 52, reference compound], the “Herbicidal activity in % against PHBPU” value (Pharbitis purpureum) is reported as 50%, the pest or weed control at 80 g/ha (Stellaria media) is reported as 80% and the pest or weed control at 80 g/ha (Veronica persica) is reported as 80%.

Work on CCSc1c(S(C)(=O)=O)ccc(C(=O)c2c(C3CC3)nn(C)c2O)c1C [reference compound] yielded a pest or weed control at 80 g/ha (Echinochloa crus galli) of 80%, a pest or weed control at 80 g/ha (Viola tricolor [4]) of 70% and a pest or weed control at 80 g/ha (Xanthium strumarium) of 80%.

Work on CCSc1c(Cl)ccc(C(=O)c2c(C3CC3)nn(C)c2O)c1Cl [reference compound] yielded a pest or weed control at 20 g/ha (Xanthium strumarium) of 50% and a pest or weed control at 20 g/ha (Abutilon theophrasti [5]) of 40%.
